Data as given in patent US20060122153A1, “Antineoplastic ether lipid compounds with modifications at the sn-2 carbon” (priority 2003, published 2006).

Key:
[1] = test system: U937; test: In vitro growth inhibition (GI50), cell growth assay; format: cell-based, human; details: U937 tumor cell line, 3 days
Protocol: After 3 days of incubation, cell growth was determined.
To determine the Growth Inhibition in the suspension cell lines, cell numbers were directly counted instead of using the SRB assay which determines the total cell protein. One day prior to the drug treatment, 40,000 cells per well were seeded into 24-well plates in a volume of 0.5 mL. Stock solutions were diluted with complete medium to twice the desired final concentrations, and then 0.5 mL aliquots of each dilution were added to the designated wells. After 3 days incubation, cell growth was determined by counting cell number using a coulter counter (Z-M, coulter). Cell counts were-also taken at time 0 and subtracted from the test results to give net growth.

[2] = test system: DEVDase activity (Caspase 3) in Jurkat T cells; test: DEVDase activity in Jurkat T cells; format: cell-based; details: for % L-ET18OCH3 (DEVDase, 6 hrs): Jurkat T cells; for DEVDase activity compared to ET-18-OCH3 (in words): Jurkat T cell line
Protocol: Suspension cells were seeded at density 3.2×10^5 cells per mL in RPMI-1640 medium (Bio-Whittaker) supplemented with 10% heat inactivated FBS (Bio-Whittaker). Cells were pre-incubated overnight prior to treatment with the ether lipid compounds of the invention. At treatment time cell density was 5×10^5 cells per mL. Cells were incubated with the ether lipid compounds of the invention for various periods of time, usually 6 hours. Cells were collected, washed with 1×DPBS and resuspended in 110 μl of Buffer A (10 mM BEPES-KOH, pH 7.4, 2 mM EDTA, 0.1% CHAPS, 5 mM DTT, 1:100 dilution of protease inhibitors cocktail (Sigma)-DTT and protease inhibitors should be added just before use). After 10 min incubation on ice in order to lyse cells, samples were frozen on dry ice/ethanol and kept at −20° C. until analysis.
At the time of analysis of DEVDase activity frozen pellets were kept on ice until thawed and after vigorous vortexing samples were centrifuged at 14,000 rpm for 6 min.; Supernatant was transferred into another tube and 2 μl, in triplicates, were used for protein measurement using Bradford reagent (Bio-Rad).
Measurement of DEVDase activity was carried out in 100 μl volume, where 10 μg of protein was delivered in 50 μl of Buffer A and 40 μM of substrate Ac-DEVD-AMC was also delivered in 50 μl of Buffer A. All measurements were done in triplicates. Reaction was carried out for 1 hour and generation of fluorescent product of reaction (aminomethylcoumarin) was measured by reading fluorescence at 1em 460 nm (1ex 360 nm). Changes in DEVDase activity were calculated after subtraction of background fluorescence of substrate incubated without proteins, and were expressed as percent of control (DEVDase activity in untreated cells). Average of DEVDase activity, calculated from few independent experiments, was used to calculate percent of L-ether lipid-induced DEVDase activity.

[3] = test system: K-562; test: NCI growth inhibition screen, leukemia panel; format: cell-based, human; design: key to Performance as compared to ET-18-O—CH3: = means equivalent activity; + means that it appears to be significantly better (i.e., by ˜2x); < means it appears to be less active than ET18OCH3 (˜2x); a combination like =/+ or </+ means that activity is dependent upon the isomer; a combination like =/+ or </+ means that activity is dependent upon the isomer; details: for Performance as compared to ET-18-O—CH3: K-562, Leukemia, from GI50s
Protocol: (§1) Candidates deemed suitable for in vivo testing were then synthesized in large scale quantities and some of this material was sent to the NCI's Developmental Therapeutics Program for a battery of growth inhibitory studies against various human tumor cell lines (60 cell lines, 9 different panels). The remainder of the material was used to assess in vivo efficacy using murine tumor models. Additionally, studies were conducted on the lead candidates to discern mechanism of action with particular emphasis on these agents apoptotic ability as measured by caspase 3 activity. The details (materials and methods) for these various assays are described further in the following discussion.
(§2) Ten compounds were also sent to NCI's Drug Discovery Program for screening against numerous human tumor cell lines (9 panels total: renal ovarian, colon, CNS, non-small cell lung, leukemia, breast, melanoma, and prostate). The data are shown in FIGS. 2a-i which also include data regarding D- and L-ET-18-OCH3 (listed as L-EL and D-EL in the figures). Upon examining the data, one is struck by how 1R and 1a′S standout in comparison to the other compounds, especially for the renal, ovarian, colon, and CNS panels.

[4] = test system: RPMI-8226; test: NCI growth inhibition screen, leukemia panel; format: cell-based, human; design: key to Performance as compared to ET-18-O—CH3: = means equivalent activity; + means that it appears to be significantly better (i.e., by ˜2x); < means it appears to be less active than ET18OCH3 (˜2x); a combination like =/+ or </+ means that activity is dependent upon the isomer; a combination like =/+ or </+ means that activity is dependent upon the isomer; details: for Performance as compared to ET-18-O—CH3: RPMI-8226, Leukemia, from GI50s; for activity (in words): RPMI-8226 cell line, NCI screen
Protocol: as §1, §2

## CCCCCCCCCCCCCCCCCCOC[C@@H](COP(=O)([O-])OCC[N+](C)(C)C)OS(C)(=O)=O [1a′S]
[1]
  GI50: 1400 nM
[2]; 10 μM ether lipid
  % L-ET18OCH3 (DEVDase, 6 hrs): 58.9 ± 9.1%
[2]; 20 μM ether lipid
  % L-ET18OCH3 (DEVDase, 6 hrs): 55.5 ± 8.3%
[2]; 30 μM ether lipid
  % L-ET18OCH3 (DEVDase, 6 hrs): 61.3 ± 9.1%
[2]
  DEVDase activity compared to ET-18-OCH3 (in words): less DEVDase activity than ET-18-OCH3
[3]
  Performance as compared to ET-18-O—CH3: =/+
[4]
  Performance as compared to ET-18-O—CH3: </+
  activity (in words): poor activity

## CCCCCCCCCCCCCCCCCCOCC(COP(=O)([O-])OCC[N+](C)(C)C)OS(C)(=O)=O (stereo not drawn) [Compound 1aR]
[1]
  GI50: 1400 nM
[2]; 10 μM ether lipid
  % L-ET18OCH3 (DEVDase, 6 hrs): 56.6 ± 8.3%
[2]; 20 μM ether lipid
  % L-ET18OCH3 (DEVDase, 6 hrs): 52.4 ± 8.6%
[2]; 30 μM ether lipid
  % L-ET18OCH3 (DEVDase, 6 hrs): 51.6 ± 8.1%
[2]
  DEVDase activity compared to ET-18-OCH3 (in words): less DEVDase activity than ET-18-OCH3
[3]
  Performance as compared to ET-18-O—CH3: =/+
[4]
  Performance as compared to ET-18-O—CH3: =/+

## CCCCCCCCCCCCCCCCCCOCC(COP(=O)([O-])OCC[N+](C)(C)C)OC [D-ET18OCH3, 1-O-octadecyl-2-O-methyl-glycerophosphocholine, reference compound]
[1]
  GI50: 1400 nM
[2]; 10 μM ether lipid
  % L-ET18OCH3 (DEVDase, 6 hrs): 79.3 ± 9.7%
[2]; 20 μM ether lipid
  % L-ET18OCH3 (DEVDase, 6 hrs): 89.2 ± 12.2%
[2]; 30 μM ether lipid
  % L-ET18OCH3 (DEVDase, 6 hrs): 92.1 ± 11.8%
[3]; K-562 cell line, NCI screen
  activity (in words): extremely poor activity
[4]
  activity (in words): extremely poor activity
